Measured values reported in US20110130460A1, “INCREASED CREATINE RETENTION WITH SOLUBLE FIBRES” (priority 2007, published 2011).

How the values were obtained:
[1] = Urinary creatine and creatinine excretion after a single 2 g creatine dose; conditions: whatever the form, excretion slightly less than 1 g/24 h
Experimental: (§1) The health status questionnaire was filled in again.
An aliquot (10 mL) was stored at −20° C.

[2] = Plasma creatine kinetics after a single 2 g creatine dose (one-open compartmental model); type: in vivo, human
Experimental: as §1
(§2) Venous blood was collected on heparin as an anticoagulant. The tubes were placed immediately on ice and centrifuged at 3000 g for 6 min at 4° C. Plasma (900 μL) was deproteinized with sulfosalicylic acid 5% (300 μL) and centrifuged again at 3000 g for 6min. NaOH 0.1M (90 μL) was added to supernatant (300 μL) to obtain a pH value of about 7.8. Samples were stored at −20° C.
(§3) An aliquot (10 mL) was stored at −20° C. […] An aliquot was stored at −80° C.
Using a Marquardt algorithm, all kinetics were fitted with the following equation:
C(FD/V*(ka/(ka−kel))*(exp(−kel*(t−tlag))−exp(−ka*(t−tlag)))) (equation 1)
where C is the plasma creatine concentration minus the basal concentration (μM) • if C 0, then data were removed • F is the bioavailability • D is the dose (2 g or 15 300 μmol) • is the volume of distribution • ka is the velocity constant of absorption (first order, h^−1) • kel is the velocity constant of elimination (first order, h^−1) • t is the time (h) • tlag is the lag-time (h)
This equation corresponds to a one-open compartmental model in which ka, kel and tlag are the primary parameters. Knowing their value, new kinetic parameters of plasma creatine were calculated:
AUCO,∞:the area under the curve integrated from zero to infinity
Since the bioavailability (F) may not be measured, only the apparent volume of distribution and the apparent clearance can be estimated:
Vd: the apparent volume of distribution (Vd=V/F, L)
C: the apparent clearance (Cl=Kel·Vd, L.h^−1)

[3] = Plasma and erythrocyte creatine and creatinine after one week creatine supplementation (3×2 g per day); type: in vivo, human
Experimental: as §1, §2
After the first centrifugation, erythrocytes were washed twice with a similar volume of physiological water (0.9% NaCl, centrifugation: 1000 g, 5 min, 4° C.). After three frozen and defrozen procedures, erythrocytes (300 μL) were deproteinized with sulfosalicylic acid 5% (600 μL) and then centrifuged at 3000 g during 6 min. Supernatant was collected and centrifuged again. The clear supernatant was neutralized with NaOH 0.1M.
as §3

[4] = Creatine and creatinine in 24 h feces by HPLC; type: in vivo, human; conditions: basal or supplemented, could not be quantified
Experimental: as §1, §3
Both creatine and creatinine content in feces was analyzed by HPLC at 205 nm. After dilution of a feces aliquot in 0.045M ammonium sulfate containing an internal standard (4-[2-aminoethyl]-benzene sulfonamide), the sample was filtered on a 10 kDa membrane. The following conditions were used to identify creatine: 2 Beckman RP-C18 Ultrasphere ODS columns 5μ 25 cm*4.6 mm; elution: A/B (70/30) with 0.05% anhydrous trifluoroacetic acid (TFA) at 1.0 mL/min; A: 0.1% H3PO4 in deionised H2O; B: 1.4 mg sodium dodecylsulfate/mL acetonitril. […] The values reported for creatine in the results section correspond to highest possible estimates including a probable overestimation.

[5] = Questionnaire on side effects after creatine supplementation; type: in vivo, human; conditions: after each period of one week creatine supplementation vs initial visit
From the text: as §1

[6] = 21 g/d creatine for 2 weeks; levels within the normal range; cited from earlier work

In the case of CN(CC(=O)O)C(=N)N [creatine], the “Creatinine urinary excretion, effect of creatine ingestion” value [1] is reported as “not affected”, the “apparent volume of distribution relative to body mass” value ([2]; after ingestion of 2 g creatine, not influenced by the form ingested) is reported as “about 75 % of body mass” and the “change of plasma creatinine concentration after single dose” value ([2]; eight hours following ingestion of 2 g creatine, independent of treatment, basal 53.5±1.50 μM) is reported as “changed by only a few μM”. The half-life ([2]; human, plasma, oral, after ingestion of 2 g creatine, mean over the forms, read-out: mean half-life of elimination (converted)) was 1.09 ± 0.06 h, the “erythrocyte creatinine concentration during the experiment” value ([3]; basal about 25 μM) was “remained stable” and the “plasma creatine concentration after supplementation, fold higher” value ([3]; one week, 3×2 g per day, fasted state, post vs pre) was 11±2.5 fold. The “increase of erythrocyte creatine concentration after supplementation” value ([3]; one week, 3×2 g per day, independent of the form ingested) was 88±22%, the “maximal estimated value of creatine in feces” value [4] was at most 50±5.7 μg per gram fresh feces and the “frequency of declared health troubles (side effects)” value [5] was “No difference was observed in the frequency of declared health troubles except for muscle cramps which were less frequently reported”. For the same molecule, the “excretion of methylamine and formaldehyde” value [6] was “increased excretion of methylamine and formaldehyde”.
